Data on two compounds can be found in article PMC3510435 (Febs Letters, 2012).

Test [1] concerns the target T1, APH(3′)-IIIa (aminoglycoside phosphotransferase(3′)-IIIa) (Enterococcus faecalis, UniProt P0A3Y5).
T1 construct: gene aphA; recombinant, N-terminal 6His-tag kept (pET15b), E. coli BL21(DE3)
Nature of the test: quench flow and coupled-assay stopped flow, ADP production. Type of test: biochemical. To be noted: 100 μM KanA, 200 μM ATP, 0.2 μM enzyme, 25 °C, pH 7.5; KanA also binds the E·ADP complex (uncompetitive-type abortive complex).

Test [2] deals with T1, APH(3′)-IIIa (aminoglycoside phosphotransferase(3′)-IIIa). Nature of the test: rapid quench flow, total ADP by HPLC. In kind it is biochemical. To be noted: 20 μM ADP added together with 20 μM ATP, 5 μM enzyme, 100 μM KanA, 25 °C, pH 7.5; competes with ATP for E·KanA; also the reaction product.

T1 sequence (P0A3Y5 whole entry): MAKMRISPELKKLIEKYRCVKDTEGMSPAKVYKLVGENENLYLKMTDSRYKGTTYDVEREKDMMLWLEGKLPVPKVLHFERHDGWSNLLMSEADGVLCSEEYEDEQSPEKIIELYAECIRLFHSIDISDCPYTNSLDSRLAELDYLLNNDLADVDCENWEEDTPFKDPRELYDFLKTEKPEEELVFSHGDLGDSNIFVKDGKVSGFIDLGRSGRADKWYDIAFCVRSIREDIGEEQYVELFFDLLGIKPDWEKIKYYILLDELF

On to `NC[C@H]1O[C@H](O[C@H]2[C@H](O)[C@@H](O[C@H]3O[C@H](CO)[C@@H](O)[C@H](N)[C@H]3O)[C@H](N)C[C@@H]2N)[C@H](O)[C@@H](O)[C@@H]1O` [kanamycin A], for which, in test [1], the “quench flow and coupled-assay stopped flow, ADP production” value was “The initial kss determined by the two methods were identical”.
Consider `Nc1ncnc2c1ncn2[C@@H]1O[C@H](COP(=O)(O)OP(=O)(O)O)[C@@H](O)[C@H]1O` [ADP], for which the “% reduction of kss and Aburst” value in test [2] is listed as ~ 50%.
